Laboratory results from patent US7144894B2, “Sulfonamide bicyclic compounds” (Bristol-Myers Squibb Company, priority 2004, dated 2006).

test system: not listed separately; assay: HPLC log P; format: physicochemical; details: pH 7.0

chromatographic logP	Compound
3.81	CC(C)C[C@H](C(N)=O)N(Cc1ccc2[nH]ccc2c1)S(=O)(=O)c1ccc(Cl)cc1 [Example 2, 2R-(N-indol-5-ylmethyl-N-4-chlorophenylsulfonyl)amino-4-methyl-pentanamide]
4.21	Cc1cc2cc(CN([C@H](CC(C)C)C(N)=O)S(=O)(=O)c3ccc(Cl)cc3)ccc2[nH]1 [Example 4, 2R-(N-(2-methylindol-5-ylmethyl)-N-4-chlorophenylsulfonyl)amino-4-methyl-pentanamide]

test system: β-amyloid peptide formation; assay: Inhibition of β-amyloid peptide formation in human H4 cells; format: cell-based; details: H4 cells stably transfected to overexpress HPLAP-APP fusion protein; 18 hrs incubation; Aβ in supernatant; read-out: Binding affinity (IC50 in nM)
Procedure: γ-Secretase inhibitors were also evaluated using in vitro assays based on the inhibition of Aβ formation in cultured cells. Cultured human cell lines, such as HEK293 and H4 cells, which express APP and γ-secretase activity or transfected derivative cell lines that overexpress wild-type APP, mutant APP, or APP fusion proteins will secrete Aβ peptides into the culture media that can be quantified as previously outlined (Dovey H. et al., J. Neurochem. 2001, 76, 173). The incubation of these cultured cells with γ-secretase inhibitors decreases the production of Aβ peptides. For instance, H4 cells stably transfected to overexpress the HPLAP-APP fusion protein described above were grown as above, detached, and adjusted to 2×10^5 cells/ml. 100 μl of the resulting suspension was then added to each well of a 96-well plate. After 4 hrs, the media was removed and replaced with 100 μl serum-free media containing various dilutions of the test compound. Plates were then incubated for 18 hrs at 37° C. and a 100 μl aliquot of the tissue culture supernatant was removed for determination of Aβ levels using time-resolved fluorescence of the homogenous sample as outlined above. The extent of Aβ inhibition was used to calculate the IC50 value for the test compound.
Representative compounds were evaluated in the above assay and were determined to inhibit Aβ formation.

IC50	Compound
0.25 to 50 nM	CC(C)C[C@H](C(N)=O)N(Cc1ccc2c(c1)CCN(Cc1ccccn1)C2=O)S(=O)(=O)c1ccc(Cl)cc1 [Example 13, 2R-(N-(1-oxo-2-(2-pyridylmethyl)-1,2,3,4-tetrahydroisoquinolin-6-ylmethylamino)-N-4-chlorophenylsulonyl)amino-4-methyl-pentanamide]
0.25 to 50 nM	CC(C)C[C@H](C(N)=O)N(Cc1ccc2c(c1)CCN(C)C2=O)S(=O)(=O)c1ccc(Cl)cc1 [Example 14, 2R-(N-(1-oxo-2-methyl-1,2,3,4-tetrahydroisoquinolin-6-ylmethylamino)-N-4-chlorophenylsulfonyl)amino-4-methyl-pentanamide]
0.25 to 50 nM	CCCN1CCc2cc(CN([C@H](CC(C)C)C(N)=O)S(=O)(=O)c3ccc(Cl)cc3)ccc2C1=O [Example 15, 2R-(N-(1-oxo-2-propyl-1,2,3,4-tetrahydroisoquinolin-6-ylmethylamino)-N-4-chlorophenylsulfonyl)amino-4-methyl-pentanamide]
0.25 to 50 nM	CCCCN1CCc2cc(CN([C@H](CC(C)C)C(N)=O)S(=O)(=O)c3ccc(Cl)cc3)ccc2C1=O [Example 16, 2R-(N-(1-oxo-2-butyl-1,2,3,4-tetrahydroisoquinolin-6-ylmethylamino)-N-4-chlorophenylsulfonyl)amino-4-methyl-pentanamide]
0.25 to 50 nM	CC(C)C[C@H](C(N)=O)N(Cc1ccc2c(c1)CCN(Cc1ccccc1)C2=O)S(=O)(=O)c1ccc(Cl)cc1 [Example 17, 2R-(N-(1-oxo-2-benzyl-1,2,3,4-tetrahydroisoquinolin-6-ylmethylamino)-N-4-chlorophenylsulfonyl)amino-4-methyl-pentanamide]
0.25 to 50 nM	COCCN1CCc2cc(CN([C@H](CC(C)C)C(N)=O)S(=O)(=O)c3ccc(Cl)cc3)ccc2C1=O [Example 18, 2R-(N-(1-oxo-2-(2-methoxyethyl)-1,2,3,4-tetrahydroisoquinolin-6-ylmethylamino)-N-4-chlorophenylsulonyl)amino-4-methyl-pentanamide]
0.25 to 50 nM	CC(C)C[C@H](C(N)=O)N(Cc1ccc2c(c1)CCN(CC1CC1)C2=O)S(=O)(=O)c1ccc(Cl)cc1 [Example 19, 2R-(N-(1-oxo-2-cyclopropylmethyl-1,2,3,4-tetrahydroisoquinolin-6-ylmethylamino)-N-4-chlorophenylsulfonyl)amino-4-methyl-pentanamide]
0.25 to 50 nM	CC(C)C[C@H](C(N)=O)N(Cc1ccc2c(c1)CCN(CC1CCC1)C2=O)S(=O)(=O)c1ccc(Cl)cc1 [Example 20, 2R-(N-(1-oxo-2-cyclobutylmethyl-1,2,3,4-tetrahydroisoquinolin-6-ylmethylamino)-N-4-chlorophenylsulfonyl)amino-4-methyl-pentanamide]

Compound	IC50
CC(C)N1CCc2cc(CN([C@H](CC3CC3)C(N)=O)S(=O)(=O)c3ccc(Cl)cc3)ccc2C1=O [Example 23, 2R-(N-(1-oxo-2-(2-propyl)-1,2,3,4-tetrahydroisoquinolin-6-ylmethylamino)-N-4-chlorophenylsulfonyl)amino-3-cyclopropyl-propanamide]	0.25 to 50 nM
CCC(CC)N1CCc2cc(CN([C@H](CC3CC3)C(N)=O)S(=O)(=O)c3ccc(Cl)cc3)ccc2C1=O [Example 24, 2R-(N-(1-oxo-2-(3-pentyl)-1,2,3,4-tetrahydroisoquinolin-6-ylmethylamino)-N-4-chlorophenylsulfonyl)amino-3-cyclopropyl-propanamide]	0.25 to 50 nM

same assay, conditions: Homo sapiens; H4 cells stably transfected to overexpress HPLAP-APP fusion protein; 18 hrs incubation; Aβ in supernatant; read-out: Binding affinity (IC50 in nM)

IC50	Compound
0.25 to 50 nM	CC(C)C[C@H](C(N)=O)N(Cc1ccc2[nH]ccc2c1)S(=O)(=O)c1ccc(Cl)cc1 [Example 2, 2R-(N-indol-5-ylmethyl-N-4-chlorophenylsulfonyl)amino-4-methyl-pentanamide]
0.25 to 50 nM	Cc1cc2cc(CN([C@H](CC(C)C)C(N)=O)S(=O)(=O)c3ccc(Cl)cc3)ccc2n1C(=O)OC(C)(C)C [Example 3, 2R-(N-(1-t-Butyloxycarbonyl-2-methylindol-5-ylmethyl)-N-4-chlorophenylsulfonyl)amino-4-methyl-pentanamide]
0.25 to 50 nM	Cc1cc2cc(CN([C@H](CC(C)C)C(N)=O)S(=O)(=O)c3ccc(Cl)cc3)ccc2[nH]1 [Example 4, 2R-(N-(2-methylindol-5-ylmethyl)-N-4-chlorophenylsulfonyl)amino-4-methyl-pentanamide]
0.25 to 50 nM	CC(C)C[C@H](C(N)=O)N(Cc1ccc2c(c1)CCNC2=O)S(=O)(=O)c1ccc(Cl)cc1 [Example 5, 2R-(N-(1-oxo-1,2,3,4-tetrahydroisoquinolin-6-ylmethyl)-N-4-chlorophenylsulfonyl)amino-4-methyl-pentanamide]
0.25 to 50 nM	CCN1CCc2cc(CN([C@H](CC(C)C)C(N)=O)S(=O)(=O)c3ccc(Cl)cc3)ccc2C1=O [Example 6, 2R-(N-(1-oxo-2-ethyl-1,2,3,4-tetrahydroisoquinolin-6-ylmethylamino)-N-4-chlorophenylsulfonyl)amino-4-methyl-pentanamide]
50 to 500 nM	CC(C)C[C@H](C(N)=O)N(Cc1ccc2c(c1)CCC(=O)N2)S(=O)(=O)c1ccc(Cl)cc1 [Example 7, 2R-(N-(2-oxo-1,2,3,4-tetrahydroquinolin-6-ylmethyl)-N-4-chlorophenylsulfonyl)amino-4-methyl-pentanamide]
0.25 to 50 nM	CC(C)C[C@H](C(N)=O)N(Cc1ccc2c(c1)CCN2)S(=O)(=O)c1ccc(Cl)cc1 [Example 9, 2R-(N-indolin-5-yl-N-4-chlorophenylsulfonyl)methylamino-4-methyl-pentanamide]
0.25 to 50 nM	CC(C)C[C@H](C(N)=O)N(Cc1ccc2c(c1)CCN2C)S(=O)(=O)c1ccc(Cl)cc1 [Example 10, 2R-(N-1-methylindolin-5-yl-N-4-chlorophenylsulfonyl)methylamino-4-methyl-pentanamide]
0.25 to 50 nM	CC(C)C[C@H](C(N)=O)N(Cc1ccc2c(c1)CCN2C(=O)C1CCCC1)S(=O)(=O)c1ccc(Cl)cc1 [Example 12, 2R-(N-1-cyclopentylcarbonylindolin-5-yl-N-4-chlorophenylsulfonyl)methylamino-4-methyl-pentanamide]
0.25 to 50 nM	CCN1CCc2cc(CN([C@H](CC3CC3)C(N)=O)S(=O)(=O)c3ccc(Cl)cc3)ccc2C1=O [Example 21, 2R-(N-(1-oxo-2-ethyl-1,2,3,4-tetrahydroisoquinolin-6-ylmethylamino)-N-4-chlorophenylsulfonyl)amino-3-cyclopropyl-propanamide]
0.25 to 50 nM	CCN1CCc2cc(CN([C@H](CC(F)F)C(N)=O)S(=O)(=O)c3ccc(Cl)cc3)ccc2C1=O [Example 22, 2R-(N-(1-oxo-2-ethyl-1,2,3,4-tetrahydroisoquinolin-6-ylmethylamino)-N-4-chlorophenylsulfonyl)amino-4,4-difluorobutanamide]
